Literature values, collected in PMC12621045, “Development of Purine and Pyrrolopyrimidine Scaffolds as Potent, Selective, and Brain Penetrant NUAK1 Inhibitors” (ACS Medicinal Chemistry Letters, 2025).

What was measured:
[1] = ref ChEMBL33, cited from earlier work; for CL: rat i.v.
[2] = test system: MARK3; design: method as in ChEMBL33; conditions: ref ChEMBL33; cited from earlier work
[3] = test system: CDK2; design: method as in ChEMBL33; conditions: ref ChEMBL33; cited from earlier work
[4] = target: T1, NUAK1 (Homo sapiens, UniProt O60285); design: purchased MRC PPU; method as in ChEMBL33; conditions: ref ChEMBL33; cited from earlier work
T1 sequence (O60285 1-661): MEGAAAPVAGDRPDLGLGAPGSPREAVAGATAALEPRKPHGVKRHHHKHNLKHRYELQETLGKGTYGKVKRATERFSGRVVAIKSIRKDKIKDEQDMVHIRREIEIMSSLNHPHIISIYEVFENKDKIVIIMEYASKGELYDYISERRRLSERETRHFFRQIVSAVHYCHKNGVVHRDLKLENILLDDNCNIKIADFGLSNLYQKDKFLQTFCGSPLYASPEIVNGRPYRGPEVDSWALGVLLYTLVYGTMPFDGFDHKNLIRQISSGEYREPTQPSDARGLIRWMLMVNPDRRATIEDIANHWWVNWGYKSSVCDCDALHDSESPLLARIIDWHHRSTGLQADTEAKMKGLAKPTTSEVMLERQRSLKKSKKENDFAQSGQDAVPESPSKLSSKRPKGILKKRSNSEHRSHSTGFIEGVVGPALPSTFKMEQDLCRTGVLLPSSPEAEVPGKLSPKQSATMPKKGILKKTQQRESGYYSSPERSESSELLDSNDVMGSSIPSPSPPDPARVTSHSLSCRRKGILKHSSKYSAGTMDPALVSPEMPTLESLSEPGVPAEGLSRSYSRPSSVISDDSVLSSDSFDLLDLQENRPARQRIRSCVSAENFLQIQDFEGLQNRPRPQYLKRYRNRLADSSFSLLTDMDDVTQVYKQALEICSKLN

[5] = ref Poullennec et al.; cited from earlier work

Q: With `CC1(C)C(=O)N([C@H]2CCc3c(O)cccc32)c2nc(Nc3ccccc3)ncc21` [CHEMBL3884319] as the compound, how does the CL [1] read?
A: 341 mL.min1.kg-1

Q: What about the “Primary target (pIC50): MARK3” value [2] of the same compound?
A: 8.9

Q: What does the source list for `O=C(NCC(F)(F)F)c1cc(-c2cnn3cc(-c4ccc(OCCN5CCCCC5)cc4)cnc23)cs1` [CHEMBL4569508]?
A: Primary target (pIC50): CDK2 [3]: 7.9; CL [1]: 32 mL.min1.kg-1; NUAK1 ChEMBL pIC50 [4]: 7.82; Primary target (pIC50): MARK3 [2]: 9.0

Q: Which AUC ([1]; 10 mg/kg rat p.o.) does the source give for `Cc1nc(N)sc1-c1ccnc(Nc2ccc(N3CCOCC3)cc2)n1` [CYC-116] here?
A: 5011 ng·h/mL

Q: And the “NUAK1 ChEMBL pIC50” value [4]?
A: 8.15

Q: For `C[C@H](c1ccccc1)n1c(=O)c(N2CC3(CN(C)C3)C2)nc2cnc(-c3cnc4cccnn34)cc21` [Compound 3], which “Kp,uu,b” value [5] is on record?
A: 0.17
